According to PubChem BioAssay (NCI):
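1) Cells in 96-well plates. 2) Compound, 48 h, 5 concentrations. 3) Linear interpolation between surrounding doses. 4) Unreached endpoint = highest concentration. The concentration for 50% growth inhibition is given as GI50. Definition used: TGI = concentration required for complete inhibition of growth.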

Tests used:
Assay in all cases: DTP human tumour cell line panel, 48 h
MDA-MB-435 = tested on: MDA-MB-435
OVCAR-3 ovarian = tested on: OVCAR-3 ovarian
TK-10 renal = tested on: TK-10 renal
OVCAR-4 ovarian = tested on: OVCAR-4 ovarian
OVCAR-8 ovarian = tested on: OVCAR-8 ovarian
RPMI-8226 leukemia = tested on: RPMI-8226 leukemia
ACHN renal = tested on: ACHN renal
HT29 colon = tested on: HT29 colon
PC-3 prostate = tested on: PC-3 prostate
SK-OV-3 ovarian = tested on: SK-OV-3 ovarian

SMILES | GI50 (MDA-MB-435) [µM] | TGI (MDA-MB-435) [µM] | GI50 (OVCAR-3 ovarian) [µM] | TGI (OVCAR-3 ovarian) [µM] | GI50 (TK-10 renal) [µM] | TGI (TK-10 renal) [µM] | GI50 (OVCAR-4 ovarian) [µM] | TGI (OVCAR-4 ovarian) [µM] | GI50 (OVCAR-8 ovarian) [µM] | TGI (OVCAR-8 ovarian) [µM] | GI50 (RPMI-8226 leukemia) [µM] | TGI (RPMI-8226 leukemia) [µM] | GI50 (ACHN renal) [µM] | TGI (ACHN renal) [µM] | GI50 (HT29 colon) [µM] | TGI (HT29 colon) [µM] | GI50 (PC-3 prostate) [µM] | TGI (PC-3 prostate) [µM] | GI50 (SK-OV-3 ovarian) [µM] | TGI (SK-OV-3 ovarian) [µM]
ClCc1ccccc1Cn1cnc2c(Cl)ncnc21 | 3.01 | 9.49 | 1.4 | 3.53 | 23.1 | 46.7 | 3.39 | 12.2 | 2.22 | 5.21 | 14.1 | 40.6 | 2.7 | 6.1 | 3.56 | > 100 | 3.03 | 10.5 | 4.19 | 15.9
O=C1C(=O)c2ccccc2C(O)=C1CCCc1ccc(C2CCCCC2)cc1 | 3.64 | 22.6 | 0.96 | 15.2 | 23.4 | > 100 | 3.23 | > 100 | 6.01 | > 100 | 1.8 | 23.7 | 5.15 | > 100 | 5.11 | > 100 | 0.722 | 44.8 | 10.9 | 59.7
O=C(c1ccccc1)c1c(C(F)(F)F)n([O-])c2cc(C(F)(F)F)ccc2[n+]1=O | 1.6 | 3.02 | 1.61 | 3.11 | 1.75 | 3.18 | 1.19 | 2.89 | 1.87 | 5.46 | 1.49 | 3.75 | 1.54 | 2.93 | 0.983 | 2.86 | 1.19 | 2.54 | 1.77 | 3.21
COc1cc(OC)c(OC)cc1/C=C/c1cnnc2ccccc12 |  | 6.52 |  | > 10 |  | > 10 |  | > 10 |  | > 10 |  | > 10 |  | > 10 |  | > 10 |  | > 10 |  | > 10
Cn1nc(C(F)(F)F)c(-c2cc(C(F)(F)F)cc(C(F)(F)F)c2)c1-c1ccc(OCc2ccc(Cl)cc2)cc1O | 2.54 | 8.03 | 2.27 | 10.7 | 3.11 | 11.1 | 2.68 | 13.3 | 2.92 | 12.1 | 2.26 | 7.22 | 2.54 | 10 | 2.9 | 10.6 | 1.88 | 11.5 | 2.82 | 10.1
O=c1oc2cc(OC/C(=N/O)c3ccc(F)cc3)ccc2c2ccccc12 | 17.3 | 38.7 | 17.6 | 40.6 | 27 | 81.2 |  |  | 22.5 | 43.6 | 31.8 | > 100 | 20.4 | 41.6 | 19.4 | 43.2 | 22.1 | 49.1 | 24 | 41.3
N#C/C(=N\Nc1ccccc1)C(=O)Nc1cc(-c2ccccc2)nn1-c1ccccc1 | 3.05 | > 100 | 3.24 | 33.2 | 4.27 | > 100 | 2.01 | 8.95 | 3.25 | > 100 | 1.8 | 39.2 | 2.98 | > 100 | 3.2 | 17.3 | 2.13 | 9.48 |  | 
Clc1ccc2nc(CI)c(CI)nc2c1 | 3.16 | 14.4 | 3.02 | 7.14 | 3 | 10.2 | 2.45 | 6.22 | 2.87 | > 23.5 | 2.62 | 8.25 | 1.83 | 3.4 | 3.74 | 19.6 | 7.02 | 29.9 | 23.1 | > 58
CCCCCCCC/C=C1\CCC(CN2CCOCC2)C1=O (stereo not given) |  | 15.3 |  | 14.8 |  | 7.42 |  | 31 |  | 13.8 |  | 4.19 |  | 30.1 |  | 20.5 |  | 23.7 |  | 34.3
COC(=O)C(=O)C(C(=O)C(=O)Nc1ccccc1OC)c1nc2ccc([N+](=O)[O-])cc2[nH]c1=O (stereo not given) |  | > 100 |  | > 100 |  | > 100 |  | > 100 |  | > 100 |  | > 100 |  | > 100 |  | > 100 |  | > 100 |  | > 100
CC(=O)NC(CSC1=C2NC(=O)\C=C/C=C/C=C\C(C)C(O)CC(=O)/C(C)=C\CC(O)/C=C/C(C)C(O)C(C)C=C(C)C(=O)c3c(O)c(C)cc(c3C1=O)C2=O)C(=O)O (stereo not given) |  | > 100 |  | > 100 |  | > 100 |  | > 100 |  | > 100 |  |  |  | > 100 |  | > 100 |  | > 100 |  | > 100
CN(C)CCCC1(c2ccc(F)cc2)OCc2cc(-c3cc4ccccc4s3)ccc21 (stereo not given) | 1.83 | 3.32 | 1.67 | 3.19 | 1.7 | 3.13 | 1.94 | 3.52 | 1.72 | 3.25 |  |  | 1.66 | 3.02 | 1.67 | 3.11 | 1.5 | 2.99 | 1.66 | 3.04
COc1cc(NS(C)(=O)=O)ccc1NCc1c2ccccc2nc2ccccc12 |  |  |  | > 100 |  | > 100 |  | 22.3 |  | 99.1 |  | 71.1 |  | > 100 |  | > 100 |  |  |  | > 100
COC1=CC(c2ccc[nH]2)=N/C1=C\c1[nH]c(C)c(CC(=O)OCc2ccccc2)c1C | 0.369 | 1.42 | 0.31 | 1.41 | 0.351 | 2.11 | 0.256 | 5.17 | 0.362 | 1.27 |  |  | 0.296 | 0.886 | 0.205 | 1.41 | 0.299 | 10.3 | 0.457 | 2.77
CCOc1ccc(NCC2CC/C(=C\c3ccccc3OC)C2=O)cc1 (stereo not given) |  |  |  | 17.1 |  | 26.7 |  | 12.8 |  | 13 |  | 3.91 |  | 27.8 |  | 7.78 |  |  |  | 31.1
Cc1cccc(C)c1N1C(=O)C(=O)C(c2nc3ccccc3s2)/C(=N/NC(=O)c2ccccc2O)C1=O (stereo not given) |  |  |  | > 100 |  | > 100 |  | > 100 |  | > 100 |  | > 69.2 |  | > 89.4 |  | > 100 |  |  |  | > 100
C=C1C(=O)O[C@H]2[C@H]1CC/C(COC(=O)CCCc1c[nH]c3ccccc13)=C\CC[C@@]1(C)O[C@@H]21 | 1.74 | 3.55 | 1.53 | 3.02 | 1.64 | 3.07 | 1.66 | 3.28 | 3.38 | 11.2 | 2.31 | 6.09 |  |  | 1.71 | 3.37 | 1.92 | 4.62 | 17.3 | 32.8
Nc1ccc(COC(O)CN2CCCCC2)cc1[N+](=O)[O-] (stereo not given) |  | > 100 |  | > 100 |  | > 100 |  | > 100 |  | > 100 |  | > 100 |  | > 100 |  | > 100 |  | > 100 |  | 
CC(C(=O)c1ccccc1)C1(O)C(=O)Nc2ccc(Cl)cc21 (stereo not given) |  |  |  | > 100 |  | > 100 |  | 77.8 |  | > 100 |  | > 100 |  | > 100 |  | > 100 |  |  |  | > 100
Cc1ccc(S(=O)(=O)OC(COC(=O)c2ccccc2)C(OS(=O)(=O)c2ccc(C)cc2)C(OS(=O)(=O)c2ccc(C)cc2)C(COC(=O)c2ccccc2)OS(=O)(=O)c2ccc(C)cc2)cc1 (stereo not given) |  |  |  | > 100 |  | > 100 |  | > 100 |  | > 100 |  | > 100 |  | > 100 |  | > 100 |  |  |  | > 10
Cc1nc(N)nc(N)c1CCCc1ccccc1 |  |  |  | > 100 |  | > 100 |  | > 100 |  | > 100 |  | > 100 |  | > 100 |  | > 100 |  |  |  | > 100
C1CN(P2(N3CC3)=NP(N3CC3)(N3CC3)=NP(N3CC3)(N3CC3)=N2)CCO1 (stereo not given) |  |  |  | > 100 |  | > 100 |  | > 100 |  | > 100 |  | > 100 |  | > 100 |  | > 100 |  |  |  | > 100
CCCCc1c2cnccc2c(CCCC)c2c1[nH]c1ccccc12 |  |  |  | 19.6 |  | 34.6 |  | 29.8 |  | 31.1 |  | 17.6 |  | 30.6 |  | 29 |  |  |  | 42.2
CCCCCC[C@@H](C)NC(=O)c1ccc(Nc2nc3ccccc3c3occc23)cc1 | 2.98 | > 100 | 2.88 | > 100 | 18.5 | 70.2 |  |  | 3.08 | 16.5 | 3.75 | > 100 | 24.8 | 91.7 | 2.81 | > 100 | 3.45 | > 100 | 4.25 | > 100
